In patent US11414387B2, “Oxoacridinyl acetic acid derivatives and methods of use” (Stingthera, Inc., priority 2017, dated 2022):

How the values were obtained:
[1] = biological target: hSTING-CTD (Homo sapiens (Human), UniProt Q86WV6); experiment: Human STING protein FP competition concentration response assay; format: binding
Experimental: (§1) A validated STING ligand, such as c-di-GMP, which is labeled with a read-out signal (e.g., a fluorescence signal such as fluorescein), is mixed with STING-CTD (e.g., mouse STING-CTD or human STING-CTD) with or without the presence of a compound of the present application. Changes in the read-out signal are measured (e.g., by fluorescence anisotropy) to determine the binding of the compound to STING-CTD.
(§2) Fluorescein labeled c-di-GMP, a validated STING ligand, was mixed with recombinant hSTING-CTD in a homogenous assay format with or without the presence of a compound of the present application (titrated) in PBS in black 384-well plates (10 μL per well). The fluorescence anisotropy was determined on a PerkinElmer EnVisions multi-mode plate reader. The plate can be read immediately after mixing the reagents or after a few hours without change of signals.
• 1) hSTING (Supplier: HDB) • 2) 2′-Fluo-AHC-c-di GMP (BIOLOG #F009) • 3) 2′3′-cGAMP (BIOLOG #C161) • 4) DMXAA (InvivoGen #tlrl-dmx) • 5) DMSO (Sigma, #D5879-100 mL) • 6) 10×PBS(HDB #MCP-020) • 7) Assay plate, 384-well black plate, solid black bottom (Greiner #784076) • 8) Compound dilution intermediate plate, 384 LDV plate (Labcyte #LP-0200) • 9) Liquid handler, ECHO550 (Labcyte) • 10) Liquid handler, Bravo (Aglient) • 11) Reader, Envision (PerkinElmer) • 12) Centrifuge (Eppendorf) • 13) Multichannel Pipette (Raining) • 14) 10 ml Reservoir (Corning) • 15) 15 ml centrifuge tube (Corning) • 16) Adhesive Plate seals (BioRad) Compound Preparation • a) Containers of each compound were centrifuged at 1000 rpm for 5 min. • b) Compounds were dissolved in DMSO at 30 mM. • c) Compounds were sufficiently vortexed, and centrifuged at 1000 rpm for 1 min. • d) 16 uL of the compound solution was transferred into a LDV Compound Plate. • e) 2-fold serial dilutions of the compound solution were made with DMSO, and 14 concentrations were made in the 384-well LDV Compound Plate. • f) The LDV plate was spun at 1000 rpm for 60 sec and sealed with foil (stored at −20° C. if not used immediately). • g) 335 nL of each compound from the LDV Compound Plate was transferred to Assay Plate (ECHO550). Probe Preparation • a) 200 uM probe stock (2′-Fluo-AHC-c-diGMP) was diluted by ddH2O to 6 uM working concentration. • b) 10-12 uL 6 uM working solution of probe was transferred into the LDV plate. • c) 50 nL per well 6 uM working solution of probe was transferred from the LDV plate to each well of the empty Assay Plate (Greiner 784076) by ECHO550 Buffer mode. • d) Probe final concentration was 30 nM when assay system was 10 uL. • e) The Assay Plate was spun at 1000 rpm for 1 min. Compound Addition • a) After the LDV Compound Plate was prepared, 335 nL compound (ECHO550 DMSO mode) was transferred from the LDV Compound Plate into the Assay Plate (Greiner 784076) containing 50 nL probe in each well according to the Assay Plate layout. • b) DMSO final concentration was 3.35% when assay system was 10 uL. • c) The Assay Plate was spun at 1000 rpm for 1 min. Protein Addition • a) Aliquot of hSTING protein was thawed on ice, briefly to generate uniform solution. • b) 55 uM stock protein was diluted in 1×PBS assay buffer to generate 10 uM final solutions. • c) For test compound and ZPE wells, 10 μL per well of 10 uM protein solutions was added into the Assay Plate containing both the probe and test compounds or DMSO using multichannel pipette. • d) For HPE wells, 10 μL/well of 1×PBS assay buffer instead of protein was added into the Assay Plate containing both the probe and DMSO using multichannel pipette. • e) The Assay Plate was spun at 1000 rpm for Imin. • f) The Assay Plate was incubated at r.t. for 10-20 min.
(§3) The EnVision plate reader was used to record the FA value of each well immediately after mixing the reagents or after a few hours without change of signals.
(§4) The raw data and calculated data (Fluorescence anisotropy (FA)) was exported from the EnVision reader. […]

[2] = biological target: mSTING-CTD (Mus musculus (Mouse), UniProt Q3TBT3); experiment: Mouse STING protein FP competition concentration response assay; format: binding
Experimental: as §1
as §2, with “c-di-GMP” for “c-di-GMP, a validated STING ligand,”, “mSTING-CTD” for “recombinant hSTING-CTD in a homogenous assay format”, “application” for “application (titrated)”
• 1) 6×his-sumo-mSTING (Supplier: HDB) • 2) 2′-Fluo-AHC-c-di GMP (BIOLOG #F009) • 3) 23-cGAMP (BIOLOG #C161) • 4) DMXAA (InvivoGen #tlrl-dmx) • 5) DMSO (Sigma. #D5879-100 mL) • 6) 10×PBS(HDB #MCP-020) • 7) Assay plate, 384-well black plate, solid black bottom (Greiner #784076) • 8) Compound dilution intermediate plate, 384 LDV plate (Labcyte #LP-0200) • 9) Liquid handler, ECHO550 (Labcyte) • 10) Liquid handler, Bravo (Aglient) • 11) Reader, Envision (PerkinElmer) • 12) Centrifuge (Eppendorf) • 13) Multichannel Pipette (Raining) • 14) 10 ml Reservoir (Corning) • 15) 15 ml centrifuge tube (Corning) • 16) Adhesive Plate seals (BioRad) Compound Preparation • a) Containers of each compound were centrifuged at 1000 rpm for 5 min. • b) Compounds were dissolved in DMSO at 30 mM. • c) Compounds were sufficiently vortexed, and centrifuged at 1000 rpm for 1 min. • d) 16 uL of the compound solution was transferred into a LDV Compound Plate. • e) 2-fold serial dilutions of the compound solution were made with DMSO, and 14 concentrations were made in the 384-well LDV Compound Plate. • f) The LDV plate was spun at 1000 rpm for 60 sec and sealed with foil (stored at −20° C. if not used immediately). • g) 335 nL of each compound from the LDV Compound Plate was transferred to Assay Plate (ECHO550). Probe Preparation • a) 200 uM probe stock (2′-Fluo-AHC-c-diGMP) was diluted by dd2O to 6 uM working concentration. • b) 10-12 uL 6 uM working solution of probe was transferred into the LDV plate. • c) 50 nL per well 6 uM working solution of probe was transferred from the LDV plate to each well of the empty Assay Plate (Greiner 784076) by ECHO550 Buffer mode. • d) Probe final concentration was 30 nM when assay system was 10 uL. • e) The Assay Plate was spun at 1000 rpm for 1 min. Compound Addition • a) After the LDV Compound Plate was prepared, 100 nL compound (ECHO550 DMSO mode) was transferred from the LDV Compound Plate into the Assay Plate (Greiner 784076) containing 50 nL probe in each well according to the Assay Plate layout. • b) DMSO final concentration was 1% when assay system was 10 uL. • c) The Assay Plate was spun at 1000 rpm for 1 min. Protein Addition • a) Aliquot of 6×his-sumo-mSTING protein was thawed on ice, briefly to generate uniform solution. • b) 66 uM stock protein was diluted in 1×PBS assay buffer to generate 8 uM final solutions. • c) For test compound and ZPE wells, 10 μL per well of 8 uM protein solutions was added into the Assay Plate containing both the probe and test compounds or DMSO using multichannel pipette. • d) For HPE wells, 10 µL/well of 1×PBS assay buffer instead of protein was added into the Assay Plate containing both the probe and DMSO using multichannel pipette. • e) The Assay Plate was spun at 1000 rpm for 1 min. • f) The Assay Plate was incubated at r.t. for 10-20 min.
as §3, §4

[3] = biological target: hSTING-WT (Homo sapiens (Human), UniProt Q86WV6, H232R); experiment: Radiometric filtration binding competition assay, hSTING-WT
[4] = biological target: mSTING-R232 (Mus musculus, UniProt Q3TBT3); experiment: STING differential scanning fluorimetry (DSF) assay, mouse STING; conditions: net shift in melting temperature
[5] = biological target: hSTING-R232 (Homo sapiens (Human), UniProt Q86WV6, H232R); experiment: STING differential scanning fluorimetry (DSF) assay, WT human STING; conditions: WT (R232) human STING aa140-379, net shift in melting temperature
Experimental: A STING DSF assay was performed to determine protein thermostability shift in response to small molecule ligand binding. A STING thermostability shift assay based on differential scanning fluorimetry was used to measure (1) the net shift in melting temperature (ΔTm)between the apo and ligand-bound states of the STING protein and (2) the concentration of the thermal denaturation transition (EC50) as a surrogate measure of binding affinity (K). […] Protein in assay buffer was transferred to a 384 well plate and incubated with the hydrophobic fluorescent dye SYBR Orange. A temperature ramp was applied to the plate and the resulting dye fluorescence was plotted as a function of temperature. The first derivative of this function (dF/dT) was then used to extrapolate the melting temperature of the protein at various concentrations of compound and determine the thermal denaturation profile of a protein/compound complex.
• 1. Protein construct (affinity tag removal vs SUMO-fusion construct) • 2. Protein concentration • 3. Dye concentration • 4. Buffer • 5. Thermal ramp velocity • 6. DMSO tolerance • 7. Compound titration parameters • 8. […] 5 μM purified Target STING Protein • 3. 8 μM Sypro Orange Dye • 4. Buffer: 100 mM NaCl, 30 mM HEPES, pH 7.5 • 5. Thermal Ramp: 0.5° C./min • 6. <1% DMSO • 7. 11 point, 2 fold dilution, duplicate, 300 μM high concentrations • 8.

[6] = biological target: STING protein (Homo sapiens (Human), UniProt Q86WV6, H232R); experiment: Cell based reporter assay of IRF activation (IRF-luciferase), THP1-dual-KI R232; conditions: read-out: THP1-dual-KI R232_IRF(Luciferase)_Activity Maximum measured (%)
Sequence of STING protein (Q86WV6 whole entry H232R): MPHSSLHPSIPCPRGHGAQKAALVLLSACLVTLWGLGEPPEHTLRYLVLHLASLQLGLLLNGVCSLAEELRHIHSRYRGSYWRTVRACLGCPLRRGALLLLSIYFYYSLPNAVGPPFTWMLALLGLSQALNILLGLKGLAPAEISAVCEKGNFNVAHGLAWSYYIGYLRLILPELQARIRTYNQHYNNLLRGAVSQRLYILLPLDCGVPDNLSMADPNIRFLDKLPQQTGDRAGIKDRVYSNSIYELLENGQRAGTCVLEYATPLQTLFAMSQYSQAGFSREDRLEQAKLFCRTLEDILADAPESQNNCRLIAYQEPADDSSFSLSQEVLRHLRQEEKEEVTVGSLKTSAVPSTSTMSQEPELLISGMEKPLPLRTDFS
Source text: Briefly, THP-1 monocytes were transfected and selected for stable integration of 2 reporter constructs. Clones incorporating stably integrated vectors were further selected by antibiotic resistance to blastocidin and zeocin. The reporter constructs included: (1) firefly luciferase reporter gene under the control of an ISG54 promoter fused to five interferon (IFN)-stimulated response elements to measure IRF transcription factor binding activity and (2) secreted embryonic alkaline phosphatase reporter gene under transcription control of an IFN-beta minimal promoter fused to 5 copies of the NFkB consensus transcriptional response element and 3 copies of the c-Rel binding site.
The resulting THP-1 cell line was further modified to incorporate 3 amino acid point mutations (H71R A230G Q293R). This modification of the native TMEM173 gene in THP-1 cells (HAQ) was designed to produce a cell reporter that expressed the most common allelic variant in the human population (THP-1 R232, available from InvivoGen). Alternatively, the TMEM173 gene was knocked out to provide a congenic control to counter-screen for compound activation that was independent of the STING protein (THP-1 STING KO).
Once cell lines were established, reporter assay protocols were developed and optimized to screen small molecule compounds for agonist activity. Assay optimization for efficacy and Z′ value included titration of the following parameters:
• 1. Cell pre-activation with PMA • 2. Cell seeding density • 3. DMSO tolerance • 4. Media selection • 5. FBS concentration • 6. Incubation time • 7. Co-Assessment of cell viability by CTG assay • 8. Appropriate HPE and ZPE controls • 9. Dose Response Titration Final Assay SOP Conditions • 1. No pre-activation with PMA • 2. 5×10^4 cells/well in 96 well plate format • 3. <0.5% DMSO • 4. […] 10% FBS • 6. 14-18 hr incubation • 7. Cell Titer Glo reagent (Promega) following supernatant removal • 8.

Sequence of mSTING-CTD (Q3TBT3 134-378): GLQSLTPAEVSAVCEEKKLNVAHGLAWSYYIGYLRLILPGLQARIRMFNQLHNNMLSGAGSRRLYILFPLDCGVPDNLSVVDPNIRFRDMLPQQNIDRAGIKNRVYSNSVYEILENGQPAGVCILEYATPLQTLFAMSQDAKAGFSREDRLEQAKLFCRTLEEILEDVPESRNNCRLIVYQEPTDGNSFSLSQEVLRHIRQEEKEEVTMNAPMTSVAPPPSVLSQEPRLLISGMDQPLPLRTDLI
Sequence of hSTING-CTD (Q86WV6 135-379): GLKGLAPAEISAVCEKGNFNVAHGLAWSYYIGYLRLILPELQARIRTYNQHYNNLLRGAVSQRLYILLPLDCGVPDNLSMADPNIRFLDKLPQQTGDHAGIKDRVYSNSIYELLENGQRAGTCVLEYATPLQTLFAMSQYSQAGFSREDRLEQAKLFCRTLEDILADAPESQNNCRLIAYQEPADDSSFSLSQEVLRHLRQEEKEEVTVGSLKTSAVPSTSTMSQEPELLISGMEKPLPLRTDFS
Sequence of hSTING-WT (Q86WV6 140-379 H232R): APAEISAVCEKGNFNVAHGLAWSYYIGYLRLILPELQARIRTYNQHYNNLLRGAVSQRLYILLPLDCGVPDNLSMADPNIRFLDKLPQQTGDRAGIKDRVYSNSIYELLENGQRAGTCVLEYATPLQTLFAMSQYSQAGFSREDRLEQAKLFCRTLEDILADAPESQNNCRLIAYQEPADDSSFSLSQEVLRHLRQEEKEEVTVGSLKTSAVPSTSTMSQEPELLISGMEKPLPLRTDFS
Sequence of hSTING-R232 (Q86WV6 140-379 H232R): as above

Structure (SMILES)	IC50 [1]	IC50 [2]	other results
Cc1ccc2c(=O)c3ccccc3n(CC(=O)O)c2c1C [Compound 99]	500 to 1000 µM	50 to 100 µM	–
Cc1c(CCc2ccccc2)ccc2c(=O)c3ccccc3n(CC(=O)O)c12 [Compound 27]	> 1000 µM	50 to 100 µM	–
COc1ccc2c(=O)c3c(C)cccc3n(CC(=O)O)c2c1 [Compound 35]	–	10 to 50 µM	–
Cc1cccc2c1c(=O)c1ccccc1n2CC(=O)O [Compound 3]	–	10 to 50 µM	–
Cc1ccc2c(=O)c3ccccc3n(CC(=O)O)c2c1 [Compound 6]	–	10 to 50 µM	–
CC1(C)CCC=C(c2ccc3c(c2)c(=O)c2ccc(Cl)c(Cl)c2n3CC(=O)O)C1 [Compound 67]	500 to 1000 µM	> 100 µM	–
CCc1ccc2c(=O)c3ccc(Cl)c(Cl)c3n(CC(=O)O)c2c1 [Compound 82]	100 to 500 µM	50 to 100 µM	–
Cc1ccc2c(=O)c3ccc(Br)cc3n(CC(=O)O)c2c1 [Compound 53]	100 to 500 µM	10 to 50 µM	–
Cc1ccc2c(=O)c3cccc(C)c3n(CC(=O)O)c2c1 [Compound 11]	500 to 1000 µM	< 10 µM	–
Cc1ccc2c(=O)c3ccc(Cl)cc3n(CC(=O)O)c2c1 [Compound 17]	500 to 1000 µM	10 to 50 µM	–
O=C(O)Cn1c2ccccc2c(=O)c2c(Br)cccc21 [Compound 20]	–	50 to 100 µM	–
Cc1cccc2c(=O)c3ccccc3n(CC(=O)O)c12 [Compound 7]	> 1000 µM	10 to 50 µM	–
CC(C)(C)c1ccc2c(=O)c3ccc(Cl)c(Cl)c3n(CC(=O)O)c2c1 [Compound 47]	< 100 µM	10 to 50 µM	–
O=C(O)Cn1c2ccccc2c(=O)c2c(Cl)cccc21 [Compound 2]	–	50 to 100 µM	–
O=C(O)Cn1c2ccccc2c(=O)c2cc(Br)ccc21 [Compound 21]	–	> 100 µM	–
Cc1ccc2c(=O)c3c(Cl)cccc3n(CC(=O)O)c2c1 [Compound 16]	–	10 to 50 µM	–
Cc1ccc2c(=O)c3c(F)cccc3n(CC(=O)O)c2c1 [Compound 36]	–	10 to 50 µM	–
COc1cccc2c1c(=O)c1ccc(C)cc1n2CC(=O)O [Compound 32]	–	> 100 µM	–
O=C(O)Cn1c2ccccc2c(=O)c2ccc(C#Cc3ccccc3)cc21 [Compound 25]	–	10 to 50 µM	–
O=C(O)Cn1c2ccccc2c(=O)c2c(F)cccc21 [Compound 1]	–	50 to 100 µM	–

Now from value to compound, other results behind:

IC50 [1]	IC50 [2]	Structure (SMILES)	other results
< 100 µM	10 to 50 µM	O=C(O)Cn1c2cc(N3CCCCC3)ccc2c(=O)c2ccc(Cl)c(Cl)c21 [Compound 61]	–
–	10 to 50 µM	O=C(O)Cn1c2ccccc2c(=O)c2ccc(Cl)cc21 [Compound 5]	–
500 to 1000 µM	10 to 50 µM	Cc1c(Cl)ccc2c(=O)c3ccccc3n(CC(=O)O)c12 [Compound 98]	–
< 100 µM	10 to 50 µM	O=C(O)Cn1c2cc(NC3CCCCC3)ccc2c(=O)c2ccc(Cl)c(Cl)c21 [Compound 59]	–
> 1000 µM	10 to 50 µM	Cc1ccc2c(=O)c3ccccc3n(CC(=O)O)c2c1Cl [Compound 19]	–
500 to 1000 µM	< 10 µM	O=C(O)Cn1c2ccccc2c(=O)c2ccc(CCc3ccccc3)cc21 [Compound 26]	–
100 to 500 µM	> 100 µM	Cc1ccc2c(=O)c3cc(CCc4ccccc4C)ccc3n(CC(=O)O)c2c1 [Compound 75]	–
–	10 to 50 µM	O=C(O)Cn1c2ccccc2c(=O)c2ccc(F)cc21 [Compound 4]	–
–	10 to 50 µM	O=C(O)Cn1c2ccccc2c(=O)c2ccc(Br)cc21 [Compound 18]	–
< 100 µM	10 to 50 µM	Cc1cccc(-c2ccc3c(c2)c(=O)c2ccc(Cl)c(Cl)c2n3CC(=O)O)c1 [Compound 68]	–
< 100 µM	–	O=C(O)Cn1c2ccc(-c3ccccc3)cc2c(=O)c2ccc(Cl)c(Cl)c21 [Compound 125]	IC50 [3]: 20 to 100 µM; MOUSE DSF_6xHIS-SUMO Tm Shift (° C.) [4]: B (“B” = 0-5° C.); WT_DSF_hSWAT Tm Shift (° C.) [5]: C (“C” = 2-7° C,); Emax [6]: < 5%
–	10 to 50 µM	Cc1ccc2c(=O)c3c(C)cccc3n(CC(=O)O)c2c1 [Compound 14]	–
–	10 to 50 µM	Cc1ccc2c(=O)c3ccc(F)cc3n(CC(=O)O)c2c1 [Compound 33]	–
